Results published in US20040009168A1, “Multidose antibody formulation” (priority 2002, published 2004).

Legend:
[1] = test system: Escherichia coli, Staphylococcus aureus, Pseudomonas aeruginosa; experiment: Preservative screening test (modified USP/EP preservative efficacy test), bacteria; format: cell-based; conditions: for maximal log reduction against bacteria (model simulation): individual preservative; for b-coefficient, Bacterial LR: ± 95% confidence limits; for Bacterial × 10^4 (cfu/mL): 1 week at 25 ° C., total bacterial count 8.78 × 10^4 cfu/mL; for antimicrobial efficacy against bacteria (regression analysis, in words): I-optimal design, 14 days at room temperature
Experimental: (§1) The efficacy of the preservative against various microorganisms was measured using a modified USP/EP preservative efficacy test. These tests were conducted at Microconsult Inc. (Dallas, Tex.). In the procedure, formulations were tested against the following microorganisms: Escherichia coli, Staphylococcus aureus, Pseudomonas aeruginosa, Candida albicans, and Aspergillus niger. The three bacterial strains were inoculated together at a total concentration of ˜10^5 cfu/mL, and the two fungi were inoculated together at a total concentration of ˜10^5 cfu/mL. Samples were incubated for 7 days at room temperature (25° C.), and the total bacterial and fungal counts were measured using a colony counter. The log reduction (LR) values for the bacterial and fungal counts were calculated as log (initial count/final count).
(§2) In the unmodified USP/EP preservative efficacy tests, each microorganism is tested separately at a concentration of ˜10^5 cfu/mL. […] The preservative efficacy test was modified in this study to reduce the total sample requirement and cost per analysis. Although the bacterial and fungal strains were not tested individually at specified concentrations, by comparing the overall bacterial and fungal log reduction values with the regulatory requirements, an assessment is made of the efficacy of the preservative against these microorganisms.
(§3) The formulations were prepared by adding the preservatives at the desired concentrations as per the I-optimal design table (Table II), generated using the software Strategy (Experiment Strategies Foundation & Process Builder, Inc.). All samples were incubated at 37° C. for 9 weeks. Because protein aggregation was known to be the primary degradation pathway, protein stability was examined by SEC and right-angle light scattering to monitor the formation of soluble and insoluble aggregates, respectively, and by UV spectroscopy to monitor changes in the protein concentration. The biological activity of the samples was assessed after 1 month at 37° C. Furthermore, to assess the antimicrobial efficacy of the formulations, samples were examined by the preservative screening test at the initial time point. Samples were incubated at room temperature, and the aerobic plate counts were measured based on the minimum requirements of the USP and BP/EP preservative efficacy tests at 24 hours, 7 days, and 14 days.

[2] = test system: Candida albicans, and Aspergillus niger; experiment: Preservative screening test (modified USP/EP preservative efficacy test), fungi; format: cell-based; conditions: for Fungi × 10^5 (cfu/mL): 1 week at 25 ° C., total fungal count 2.84 × 10^5 cfu/mL
Experimental: as §1, §2, §3

[3] = test system: formulated humanized monoclonal antibody; experiment: Visual analysis of the antibody formulation with preservative; format: physicochemical; conditions: for Visual analysis: after 2 days at 50° C.
Experimental: (§4) The compatibility of six parenteral preservatives (benzyl alcohol, chlorobutanol, methyl paraben, propyl paraben, phenol, and m-cresol) with the formulated humanized monoclonal antibody was tested. The preservatives were added to the formulated antibody based on their commonly used concentration ranges in marketed multidose products (3). Protein aggregation was suspected to be the primary degradation pathway. Preliminary evaluation of the preservatives was done initially by DSC and after 2 days of incubation at 50° C. by visual inspection for appearance and by SEC for soluble aggregates.

[4] = test system: formulated humanized monoclonal antibody; experiment: Size-exclusion chromatography (SEC), monomer content; format: physicochemical; conditions: for Effect of the preservative on antibody stability (in words): preliminary screening, 2 days at 50° C.; for Percent monomer (by SEC): after 2 days at 50° C.; for Monomer (%): 1 week at 45 ° C.
Experimental: as §4
(§5) Because of the results seen in the preliminary evaluation, additional analyses were done using lower concentrations of the preservatives.
The monomer content, soluble aggregates, and clips due to hydrolysis were monitored by size-exclusion chromatography. The analytical system employed consisted of an HPLC pump (Perkin Elmer, Series 410) and an autosampler (Perkin Elmer, ISS 2000) connected to a diode array detector (Perkin Elmer, 235C). Two size-exclusion chromatography columns (Tosohaas TSK-Gel, G3000SWXL,), connected in tandem, were used for sample separation. The composition of the mobile phase was 200 mM KPO4, 150 mM NaCl, pH 6.9. Samples were diluted to 1 mg/mL and a sample volume of 40 μL was injected for analysis. The flow rate was 1.0 mL/min, and detection was at 220 and 280 nm.

[5] = test system: formulated humanized monoclonal antibody; experiment: Differential scanning calorimetry (DSC), denaturation temperature; format: physicochemical; conditions: for Effect on the denaturation temperature (in words): addition of the preservative, relative to control; for Tm (by DSC): initial time point, t0
Experimental: as §4
A decrease in the denaturation temperature reflects a destabilizing effect of the preservative on formulation stability. The denaturation temperature (Tm) of the sample was measured using the Pyris 1 differential scanning calorimeter (Perkin Elmer). A sample volume of 50 μL was taken from a 10 mg/mL protein sample and sealed in a stainless steel pan. The sample was held at 32° C. for 2 minutes, and heated to 100° C. at the rate of 10° C./min.

[6] = test system: antigen expressed on human T cells; experiment: Potency testing by FACS binding assay (flow cytometry); conditions: 1 week at 45 ° C.
Experimental: as §5
The biological activity (potency) of the protein was measured by flow cytometry, based on the binding of the antibody antigen expressed on human T cells.

[7] = main effect of the preservative (bi)
[8] = quadratic term of one preservative (bii)
[9] = single preservative, 0.2% chlorobutanol

| SMILES | maximal log reduction against bacteria (model simulation) [1] | b-coefficient, Bacterial LR [1, 7] | b-coefficient, Bacterial LR [1, 8] | b-coefficient, Fungal LR [2, 7] | Fungi × 10^5 (cfu/mL) ([2]; preservative 0.05%) | Fungi × 10^5 (cfu/mL) ([2]; preservative 0.1%) | b-coefficient, Fungal LR [2, 8] | Visual analysis ([3]; preservative 0.1%) | Effect of the preservative on antibody stability (in words) [4] | Percent monomer (by SEC) ([4]; preservative 0.1%) [%] | Monomer (%) ([4]; preservative 0.01%) | antimicrobial efficacy against bacteria (regression analysis, in words) [1] | Bacterial × 10^4 (cfu/mL) ([1]; preservative 0.01%) | Effect on the denaturation temperature (in words) [5] | Fungi × 10^5 (cfu/mL) ([2]; preservative 0.01%) | Potency (%) ([6]; preservative 0.01%) | other results |
| --- | --- | --- | --- | --- | --- | --- | --- | --- | --- | --- | --- | --- | --- | --- | --- | --- | --- |
| CC(C)(O)C(Cl)(Cl)Cl [Chlorobutanol, chlorobutanol] | 2.0 | 0.27 ± 0.05 | 0.17 ± 0.10 | 0.07 | 18 × 10^5 cfu/mL | 14 × 10^5 cfu/mL | −0.64 | – | – | – | – | – | – | – | – | – | Bacterial × 10^4 (cfu/mL) ([1]; preservative 0.2%): 46 × 10^4 cfu/mL; log reduction value predicted by simulation, bacteria [1, 9]: 2.0; Fungi × 10^5 (cfu/mL) ([2]; preservative 0.2%): 0 × 10^5 cfu/mL; log reduction value predicted by simulation, fungi [2, 9]: 1.2 |
| Cc1cccc(O)c1 [m-cresol] | – | – | – | – | – | – | – | Precipitated | not compatible with the protein | – | – | – | – | – | – | – | Visual appearance of the formulations (in words) ([3]; all tested concentrations, 2 days at 50° C.): precipitated the protein; Visual analysis ([3]; preservative 0.3%): Precipitated |
| Oc1ccccc1 [Phenol, phenol] | – | – | – | – | – | – | – | Slightly cloudy | not compatible with the protein | 62.7 | – | – | – | – | – | – | Visual analysis ([3]; preservative 0.5%): Cloudy; Effect of the preservative on antibody stability (in words) ([4]; listed as phenol): caused the formation of both soluble and insoluble aggregates; Percent monomer (by SEC) ([4]; preservative 0.5%): 20.0% |
| COC(=O)c1ccc(O)cc1 [Methyl paraben, methyl paraben] | 2.3 | 0.60 ± 0.05 | 0.12 ± 0.10 | 0.46 | 2 × 10^5 cfu/mL | 0 × 10^5 cfu/mL | 0.00 | Clear | stable | 91.3 | 98.31 | statistically significant antimicrobial efficacy | TNTC | did not affect the denaturation temperature | 26 × 10^5 cfu/mL | 73 | Visual analysis ([3]; preservative 0.05%): Clear; Monomer (%) ([4]; preservative 0.05%): 97.43%; Monomer (%) ([4]; preservative 0.1%): 97.18%; Percent monomer (by SEC) ([4]; preservative 0.1%, listed as methyl paraben): ~91%; Bacterial × 10^4 (cfu/mL) ([1]; preservative 0.05%): TNTC; Bacterial × 10^4 (cfu/mL) ([1]; preservative 0.1%): 56 × 10^4 cfu/mL; Tm (by DSC) ([5]; preservative 0.05%): 80.4 °C; Potency (%) ([6]; preservative 0.05%): 75%; Potency (%) ([6]; preservative 0.1%): 75% |
| CCCOC(=O)c1ccc(O)cc1 [Propyl paraben, propyl paraben] | – | −0.14 ± 0.05 | 0.26 ± 0.10 | 0.29 | – | – | 0.40 | – | stable | – | 97.34 | not effective | TNTC | did not affect the denaturation temperature | 0 × 10^5 cfu/mL | 68 | Visual analysis ([3]; preservative 0.02%): Clear; Monomer (%) ([4]; preservative 0.0075%): 97.89%; Percent monomer (by SEC) ([4]; preservative 0.02%): 85.3%; Percent monomer (by SEC) ([4]; preservative 0.02%, listed as propyl paraben): 85%; Bacterial × 10^4 (cfu/mL) ([1]; preservative 0.0075%): TNTC; Tm (by DSC) ([5]; preservative 0.02%): 80.6 °C; Fungi × 10^5 (cfu/mL) ([2]; preservative 0.0075%): 2 × 10^5 cfu/mL; Potency (%) ([6]; preservative 0.0075%): 74% |
